Several values for one entry are separate records, joined by “and”; a condition that tells them apart may be missing. Equal entries are not always repeated.
Test system: NCI-H196 complex spheroid growth, percent test/control
Test: Anticancer human tumor NCI-H196 cell line growth inhibition [AhR];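 further: seven days of drug exposure starting three days after plating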;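 on viability, T/C: 100% = DMSO vehicle control wells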
Details: for viability, T/C: stronger effect = lower value
Excerpt: Multicellular complex tumor spheroid response to aryl hydrocarbon receptor antagonists in combination with a variety of drugs and investigational agents in selected tumor cell lines
The current study was undertaken to assess response to aryl hydrocarbon receptor antagonists in combination with standard-of-care drugs and investigational agents in solid tumor complex spheroid models. Complex spheroids include a stromal component modeled by human endothelial cells (HUVEC) and fibroblasts modeled by human mesenchymal stem cells (MSCs). The concentration ranges selected for each drug and investigational agent were based upon clinically achievable concentrations if the clinical Cmax of the agent was known.
Compounds. The drugs and investigational agents: BAY 2416964 (NSC825713), GNF351 (NSC835774), CH-223191 (NSC835775), CPI-455 (NSC825282), aza-TdCyd (NSC777586), decitabine (NSC127716), belinostat (NSC758774), entinostat (NSC756642), pevonedistat (NSC761192), tazemetostat (NSC777109), talazoparib (NSC765396), olaparib (NSC753686), selinexor (NSC780203), nedisertib (M3814, NSC802822), bortezomib (NSC756655), venetoclax (NSC766270), doxorubicin (NSC123127), elimusertib (BAY189344, NSC800525), ceralasertib (AZD6738, NSC777638), TAK-243 (NSC785004), alisertib (NSC759677), etoposide (NSC141540), topotecan (NSC609699), eribulin (NSC707389), gemcitabine (NSC613327), carboplatin (NSC241240), cisplatin (NSC119875), and SN-38 (NSC673596) were obtained from the National Cancer Institute (NCI) Developmental Therapeutics Program Chemical Repository (32). The FDA-approved anticancer drug set is available from the Developmental Therapeutics Program at https://dtp.cancer.gov/organization/dscb/obtaining/available plates.htm. […] The stock solutions were prepared in dimethyl sulfoxide (DMSO, Sigma-Aldrich, St. Louis, MO, cat. D2650), except for the platinum compounds which were prepared in saline (Quality Biological, Gaithersburg, MD, cat. 114-055-101), at 800-fold the tested concentration and stored at -70 degrees C prior to their use. All drugs and investigational agents were tested over a range starting from a high concentration at or near the clinical Cmax and decreasing in half-log increments. If the clinical Cmax for an agent had not been determined, the highest concentration tested was 10 microM (Table 1).
Cell Culture. All cells were maintained in an incubator at 37 degrees C and 5% CO2 with 95% humidity. The PDC lines were cultured according to standard operating procedures established by the NCI PDMR (https://pdmr.cancer.gov). Briefly, all PDCs were thawed and cultured in Matrigel-coated flasks prepared with a working solution of 1X Ham's F-12 nutrient mix, without supplementation (Invitrogen, Waltham, MA, cat. 11765054), 100 U/mL penicillin-streptomycin (Invitrogen, cat. 15140122), and 2.5% Matrigel (Corning Inc., Corning, NY, cat. 354248) for the first three passages. All PDCs were cultured in complete DMEM/F-12 media containing advanced DMEM/F-12 (Invitrogen, cat. 12634028), 4.9% defined fetal bovine serum, heat inactivated (HyClone Laboratories Inc., Logan, UT, cat. SH30070.03HI), 389 ng/mL hydrocortisone (Sigma-Aldrich, cat. H4001), 9.7 ng/mL human EGF recombinant protein (Invitrogen, cat. PHG0313), 23.4 microg/mL adenine (Sigma-Aldrich, cat. A2786), 97.3 U/mL penicillin-streptomycin (Invitrogen, cat. 15140122), 1.9 mM L-glutamine (Invitrogen, cat. 25030081), and 9.7 microM Y-27632 dihydrochloride (Tocris Bioscience, Bristol, United Kingdom, cat. 1254). The PDCs were cultured in complete DMEM/F12 media without 10 microM Y-27632 dihydrochloride for at least two passages prior to the screen. The established cell lines NCI-H1341 and […] were cultured in DMEM/F-12, HEPES (Invitrogen, cat. 11330032), 5% defined fetal bovine serum (HyClone Laboratories Inc., cat. SH30070.03), ITS premix universal culture supplement [insulin (5 microg/mL), transferrin (5 microg/mL), and selenious acid (5 ng/mL)] […]

Structure (SMILES) | IC50 (curve of compound) | viability, T/C (compound 0.0316 µM) | viability, T/C (compound 0.1 µM) | viability, T/C (compound 0.316 µM) | viability, T/C (compound 1 µM) | viability, T/C (compound 3.16 µM) | viability, T/C (compound 10 µM) | further results
CC(CO)NC(=O)c1cc(-c2ccc(Cl)cc2)nn(-c2cnn(C)c2)c1=O (stereo not given) |  |  |  |  | 105% [middle of 21 runs] | 106% [middle of 19 runs] |  | IC50 (compound alone, run of 08/08/2022): > 10000 nM
CC1(C)CCC(CN2CCN(c3ccc(C(=O)NS(=O)(=O)c4ccc(NCC5CCOCC5)c([N+](=O)[O-])c4)c(Oc4cnc5[nH]ccc5c4)c3)CC2)=C(c2ccc(Cl)cc2)C1 | > 10000 nM | 98.2% and 106% and 89% | 110% and 103% and 101% | 109% and 97.2% (2×) | 109% and 103% and 96.6% | 93.8% and 103% and 99.2% | 104% and 72.5% and 89.6% | 
CC1COCCN1c1cc(C2(S(C)(=N)=O)CC2)nc(-c2ccnc3[nH]ccc23)n1 (stereo not given) | > 10000 nM | 99.9% and 98.5% and 104% | 100% and 104% and 96% | 104% (2×) and 95.2% | 88% and 95.2% and 97.4% | 97.7% and 93.7% and 85% | 69.4% and 81% and 77.6% | 
CCN(c1cc(-c2ccc(CN3CCOCC3)cc2)cc(C(=O)NCc2c(C)cc(C)[nH]c2=O)c1C)C1CCOCC1 | > 3000 nM |  |  |  |  |  |  | viability, T/C (compound 0.00949 µM): 98.5% and 117% and 104%; viability, T/C (compound 0.03 µM): 103% and 99.6% and 104%; viability, T/C (compound 0.0949 µM): 92.1% and 98.2% and 99.4%; viability, T/C (compound 0.3 µM): 111% and 101% and 107%; viability, T/C (compound 0.949 µM): 110% (2×) and 106%; viability, T/C (compound 3 µM): 104% and 94.1% and 107%
CC[C@@]1(O)C(=O)OCc2c1cc1n(c2=O)Cc2cc3c(CN(C)C)c(O)ccc3nc2-1 | > 100 nM | 116% and 105% and 106% | 108% and 101% and 104% |  |  |  |  | viability, T/C (compound 0.000316 µM): 105% and 99.9% and 103%; viability, T/C (compound 0.001 µM): 110% and 104% and 107%; viability, T/C (compound 0.00316 µM): 89.1% and 98% and 101%; viability, T/C (compound 0.01 µM): 101% and 94% and 103%
CCc1c2c(nc3ccc(O)cc13)-c1cc3c(c(=O)n1C2)COC(=O)[C@]3(O)CC | > 300 nM |  |  |  |  |  |  | viability, T/C (compound 0.000949 µM): 89.6% and 96.8% and 99.8%; viability, T/C (compound 0.003 µM): 98.3% (2×) and 108%; viability, T/C (compound 0.00949 µM): 96.8% and 95.2% and 99.4%; viability, T/C (compound 0.03 µM): 96.7% and 109% (2×); viability, T/C (compound 0.0949 µM): 90.5% and 101% and 110%; viability, T/C (compound 0.3 µM): 96.5% and 83.3% and 95.6%
COc1cc(Nc2ncc3c(n2)-c2ccc(Cl)cc2C(c2c(F)cccc2OC)=NC3)ccc1C(=O)O | > 10000 nM | 91.6% and 84.6% and 104% | 92.1% and 90.5% and 106% | 109% and 92.9% and 107% | 117% and 90.2% and 116% | 114% and 120% and 121% | 125% and 108% and 132% | 

Continued, in another order:

IC50 (curve of compound) | Structure (SMILES) | viability, T/C (compound 0.0316 µM) | viability, T/C (compound 0.1 µM) | viability, T/C (compound 0.316 µM) | viability, T/C (compound 1 µM) | viability, T/C (compound 3.16 µM) | viability, T/C (compound 10 µM) | further results
7.32 nM and 14.8 nM and 7.37 nM | CC(C)CC(NC(=O)C(Cc1ccccc1)NC(=O)c1cnccn1)B(O)O (stereo not given) |  |  |  |  |  |  | viability, T/C (compound 0.000949 µM): 98.7% and 106% and 105%; viability, T/C (compound 0.003 µM): 96.1% and 99.1% and 101%; viability, T/C (compound 0.00949 µM): 36.6% and 76.3% and 35.7%; viability, T/C (compound 0.03 µM): 2.1% and 7.38% and 4.57%; viability, T/C (compound 0.0949 µM): 1.67% and 5.37% and 2.7%; viability, T/C (compound 0.3 µM): 2.25% and 4.21% and 2%
> 10000 nM | CC(C)c1c(-c2ccccc2)nc2c(C#N)c[nH]n2c1=O | 97.3% and 97% and 111% | 104% and 102% and 106% | 109% and 92.1% and 112% | 102% (2×) and 101% | 101% and 102% and 110% | 103% and 97.7% and 96.4% | 
> 1000 nM | CC1COCCN1c1cc(-c2ccnn2C)c2ccnc(-c3ccn[nH]3)c2n1 (stereo not given) | 87.6% and 92.7% and 96.8% | 70.2% and 70.5% and 75.3% | 67% and 59.4% and 75.4% | 65.5% and 56.8% and 61.1% |  |  | viability, T/C (compound 0.00316 µM): 88.9% and 98.2% and 94.9%; viability, T/C (compound 0.01 µM): 96.8% and 97.7% and 89.9%
> 10000 nM | COc1cc(C2c3cc4c(cc3C(OC3OC5COC(C)OC5C(O)C3O)C3COC(=O)C23)OCO4)cc(OC)c1O (stereo not given) | 114% and 96.5% and 94.6% | 103% and 110% and 111% | 122% and 107% and 91.5% | 94.3% and 121% and 94.5% | 93.5% and 114% and 91.3% | 90.1% and 89.2% and 76.2% | 
> 10000 nM | COc1ccc([C@@H](O)c2cc(-c3ncnc4cc(N5CCOCC5)ccc34)c(F)cc2Cl)nn1 | 100% and 96% and 105% | 97.1% and 92.7% and 93.5% | 97% and 91.1% and 94.3% | 89.2% and 84.2% and 89.9% | 85.3% and 81.3% and 89.7% | 77.3% and 69% and 71.9% | 

Reference: PubChem BioAssay AID1919016 (Molecular Pharmacology Branch, DTP, NCI, 2023)
